# Assays:
# MDA-MB-231 cells = experiment: MDA-MB-231 cell viability (CellTiter-Glo); assay type: cell-based; conditions: Homo sapiens, 72 h, 3 days, DMSO = 100.00; for viability at 1 µM: 1 μM compound concentration; for viability at 10 µM: 10 μM compound concentration
# Method: (§1) Molm-13 cells were cultivated in RPMI-1640 (10% FBS/1% pen-strep) and were plated in white walled 96-well plates at 20,000 cells/well. H1048 cells were cultured in DMEM:F12 media supplemented with 5% fetal bovine serum, insulin, transferrin, sodium selenite, hydrocortisone, β-estradiol, penicillin and streptomycin, and were plated in white walled 96-well plates at 20,000 cells/well. MDA-MB-231 cells were cultured in DMEM media supplemented with 10% fetal bovine serum, penicillin and streptomycin, and were plated in white walled 96-well plates at 10,000 cells/well. Cells were treated with compound or DMSO (0.1%, control) and the cultures were incubated for 3 days at 37° C. and 5% CO2. Following the incubation period, 100 μL of CellTiterGlow (CTG) reagent (CellTiter-Glo® Luminescent Cell Viability Assay, Promega (Madison, Wis.)) was added to each well. Following a 10 min incubation with shaking, luminescence was measured using a Victor Wallac Luminometer.
# H1048 cells = experiment: H1048 cell viability (CellTiter-Glo); assay type: cell-based; conditions: Homo sapiens, NCI-H1048, 72 h, H1048, 3 days, DMSO = 100.00; for viability at 1 µM: 1 μM compound concentration; for viability at 10 µM: 10 μM compound concentration
# Method: (§2) FIG. 10A is a graph showing antiproliferative activity in H1048 (SCLC) cells. FIG. 10B is a graph showing antiproliferative activity in Molm-13 (AML) cells. In FIGS. 10A and 10B, the cells were incubated for 72 hrs with Compound 9 at the indicated concentrations or DMSO. Compound activity was measured based on the signal from remaining viable cells.
# as §1
# Molm-13 cells = experiment: Molm-13 cell viability (CellTiter-Glo); assay type: cell-based; conditions: Homo sapiens, MOLM-13, read-out: % Inhibition (MOLM-13 Cell Viability); for cytotoxicity at 0.1 µM: compound concentration 0.1 μM; for cytotoxicity at 10 µM: compound concentration 10 μM; for cytotoxicity at 1 µM: compound concentration 1 μM
# Method: as §2, §1
# IL-1β = IL-1β expression in LPS stimulated PBMCs (Meso Scale); assay type: cell-based, human; conditions: for inhibition at 0.1 µM / inhibition at 10 µM / inhibition at 1 µM: Homo sapiens, PBMC; for inhibition at 0.1 µM: compound concentration 0.1 μM; for inhibition at 10 µM: compound concentration 10 μM; for inhibition at 1 µM: compound concentration 1 μM
# Method: FIGS. 5 and 9A are graphs showing IL-1-beta expression in LPS stimulated peripheral blood mononuclear cells (PBMCs), PBMCs were plated in 96-well plates and pretreated with compound (Compound 1-9 individually) for 1 h, and then induced with 100 ng/mL LPS for 18-24 h. Cytokines in the media were measured according to MesoScale protocol. Negative control wells were treated with DMSO. Compound activity is measured as a percentage of LPS-induced activity. “Rev” is lenalidomide.
# (§3) Frozen primary blood mononuclear cells (PBMCs) and frozen CD14+ mobilized peripheral blood monocytes were purchased from AllCells. Cells were quick thawed, and washed 1-time with RPMI-1640/10% FBS/1% Penicillin/1% Streptomycin and plated in 96-well plates at 200,000 cells per well. Cells were pretreated with DMSO only, Compound 5013 (lenolidamide) or the indicated compound for 1 h and then induced with 100 ng/mL lipopolysaccharide (LPS) for 18-24 h. The supernatant was analyzed for IL-1 beta, IL-6, and TNF-α using Meso Scale assay according to manufacturer's protocol. The negative control wells were treated with DMSO.
# (§4) PBMCs: AllCells PB003F, Normal Peripheral Blood MNC.
# (§5) Media: RPMI 1640/10% FBS/1% Pen-Strep.
# GSPT1 = molecular target: T1, GSPT1 (Homo sapiens, UniProt P15170); experiment: GSPT1 protein levels by Western Blot analysis; assay type: cell-based; conditions: DMSO = 100.00; for remaining activity at 0.1 µM: 100 nM compound concentration; for remaining activity at 1 µM: 1 μM compound concentration
# T1 construct: Whole cell extracts were prepared using RIPA buffer according to manufacturer's protocol (Pierce); endogenous in cells
# Method: Cells were lysed using RIPA Buffer (Pierce) and a Western Blot analysis was performed using anti-GSPT1 and anti-β-actin antibodies. FIG. 11B is a graph showing the expression levels of GSPT1 protein in Molm-13 (AML) cells. Protein expression levels were measured using the LiCor Odyssey instrumentation and methods.
# Western Blot Protocol: Cell lines were grown in RPMI 1640 supplemented with streptomycin, penicillin and 10% fetal bovine serum.
# Cells were cultured at approximately 10^6 cells per mL and incubated in DMSO or each of the indicated compounds for 6-8 h. Whole cell extracts were prepared using RIPA buffer according to manufacturer's protocol (Pierce). Briefly, 2×10^6 cells were washed once in PBS, the cell pellets were resuspended in RIPA buffer and allowed to incubate for 15 minutes on ice. Cells debris was removed by centrifugation and the cleared whole cell lysates were transferred to new tubes for further analysis.
# For Western blot analysis, whole cell protein extracts were separated on 4-12% SDS-polyacrylamide gels, transferred to nitrocellulose, and probed with the indicated primary antibodies. Membranes were subsequently washed and probed with the appropriate IRDye secondary antibodies (LI-COR). The signal was detected using the Odyssey Imaging System (LI-COR).
# GSPT1: Rabbit anti-GSPT1 was obtained from Abcam, ab126090 (Cambridge, Eng.)
# TNF-α = TNF-α expression in LPS stimulated PBMCs (Meso Scale); assay type: cell-based, human; conditions: for inhibition at 0.1 µM / inhibition at 10 µM / inhibition at 1 µM: Homo sapiens, PBMC; for inhibition at 0.1 µM: compound concentration 0.1 μM; for inhibition at 10 µM: compound concentration 10 μM; for inhibition at 1 µM: compound concentration 1 μM
# Method: FIGS. 7 and 9C are graphs showing TNF-a expression in LPS stimulated peripheral blood mononuclear cells (PBMCs). PBMCs were plated in 96-well plates and pretreated with compound (Compound 1-9 individually) for 1 h, and then induced with 100 ng/mL LPS for 18-24 h. Cytokines in the media were measured according to MesoScale protocol. The negative control wells were treated with DMSO. Compound activity is measured as a percentage of LPS-induced activity. “Rev” is lenalidomide.
# as §3, §4, §5
# IL-6 = IL-6 expression in LPS stimulated PBMCs (Meso Scale); assay type: cell-based, human; conditions: for inhibition at 0.1 µM / inhibition at 10 µM / inhibition at 1 µM: Homo sapiens, PBMC, LPS-stimulated PBMCs; for inhibition at 0.1 µM: compound concentration 0.1 μM; for inhibition at 10 µM: compound concentration 10 μM; for inhibition at 1 µM: compound concentration 1 μM
# Method: FIGS. 6 and 9B are graphs showing IL-6 expression in LPS stimulated peripheral blood mononuclear cells (PBMCs). PBMCs were plated in 96-well plates and pretreated with compound (Compound 1-9 individually) for 1 h, and then induced with 100 ng/mL LPS for 18-24 h. Cytokines were measured according to MesoScale protocol. Negative control wells were treated with DMSO. Compound activity was measured as a percentage of LPS-induced activity. “Rev” is lenalidomide.
# as §3, §4, §5
# T1 sequence (P15170 whole entry): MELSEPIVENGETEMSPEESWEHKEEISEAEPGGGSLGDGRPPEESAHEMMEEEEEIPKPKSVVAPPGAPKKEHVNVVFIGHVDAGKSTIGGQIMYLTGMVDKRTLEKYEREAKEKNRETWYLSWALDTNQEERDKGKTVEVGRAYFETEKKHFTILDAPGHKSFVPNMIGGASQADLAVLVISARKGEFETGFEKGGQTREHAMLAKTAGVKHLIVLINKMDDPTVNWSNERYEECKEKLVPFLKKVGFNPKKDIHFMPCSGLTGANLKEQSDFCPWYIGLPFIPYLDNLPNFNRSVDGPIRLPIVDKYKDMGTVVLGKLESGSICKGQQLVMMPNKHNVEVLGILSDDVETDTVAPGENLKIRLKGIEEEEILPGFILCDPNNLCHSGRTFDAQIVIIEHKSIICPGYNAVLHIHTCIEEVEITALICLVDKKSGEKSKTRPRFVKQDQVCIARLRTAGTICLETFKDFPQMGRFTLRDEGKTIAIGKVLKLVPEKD
# T1 sequence (Q96SW2 whole entry, further chain): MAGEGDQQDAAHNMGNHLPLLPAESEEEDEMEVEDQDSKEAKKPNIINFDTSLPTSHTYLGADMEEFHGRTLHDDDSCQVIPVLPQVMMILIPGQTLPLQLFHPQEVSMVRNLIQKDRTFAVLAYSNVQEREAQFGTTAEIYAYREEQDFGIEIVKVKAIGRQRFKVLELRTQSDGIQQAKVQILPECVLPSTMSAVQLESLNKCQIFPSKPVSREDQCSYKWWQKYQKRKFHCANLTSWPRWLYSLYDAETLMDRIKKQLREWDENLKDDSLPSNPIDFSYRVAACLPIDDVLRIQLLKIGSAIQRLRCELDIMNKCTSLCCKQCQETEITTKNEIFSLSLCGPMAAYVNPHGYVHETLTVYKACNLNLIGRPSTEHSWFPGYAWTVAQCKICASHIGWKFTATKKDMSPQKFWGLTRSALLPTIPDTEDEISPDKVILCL
# T1 sequence (Q16531 whole entry partner): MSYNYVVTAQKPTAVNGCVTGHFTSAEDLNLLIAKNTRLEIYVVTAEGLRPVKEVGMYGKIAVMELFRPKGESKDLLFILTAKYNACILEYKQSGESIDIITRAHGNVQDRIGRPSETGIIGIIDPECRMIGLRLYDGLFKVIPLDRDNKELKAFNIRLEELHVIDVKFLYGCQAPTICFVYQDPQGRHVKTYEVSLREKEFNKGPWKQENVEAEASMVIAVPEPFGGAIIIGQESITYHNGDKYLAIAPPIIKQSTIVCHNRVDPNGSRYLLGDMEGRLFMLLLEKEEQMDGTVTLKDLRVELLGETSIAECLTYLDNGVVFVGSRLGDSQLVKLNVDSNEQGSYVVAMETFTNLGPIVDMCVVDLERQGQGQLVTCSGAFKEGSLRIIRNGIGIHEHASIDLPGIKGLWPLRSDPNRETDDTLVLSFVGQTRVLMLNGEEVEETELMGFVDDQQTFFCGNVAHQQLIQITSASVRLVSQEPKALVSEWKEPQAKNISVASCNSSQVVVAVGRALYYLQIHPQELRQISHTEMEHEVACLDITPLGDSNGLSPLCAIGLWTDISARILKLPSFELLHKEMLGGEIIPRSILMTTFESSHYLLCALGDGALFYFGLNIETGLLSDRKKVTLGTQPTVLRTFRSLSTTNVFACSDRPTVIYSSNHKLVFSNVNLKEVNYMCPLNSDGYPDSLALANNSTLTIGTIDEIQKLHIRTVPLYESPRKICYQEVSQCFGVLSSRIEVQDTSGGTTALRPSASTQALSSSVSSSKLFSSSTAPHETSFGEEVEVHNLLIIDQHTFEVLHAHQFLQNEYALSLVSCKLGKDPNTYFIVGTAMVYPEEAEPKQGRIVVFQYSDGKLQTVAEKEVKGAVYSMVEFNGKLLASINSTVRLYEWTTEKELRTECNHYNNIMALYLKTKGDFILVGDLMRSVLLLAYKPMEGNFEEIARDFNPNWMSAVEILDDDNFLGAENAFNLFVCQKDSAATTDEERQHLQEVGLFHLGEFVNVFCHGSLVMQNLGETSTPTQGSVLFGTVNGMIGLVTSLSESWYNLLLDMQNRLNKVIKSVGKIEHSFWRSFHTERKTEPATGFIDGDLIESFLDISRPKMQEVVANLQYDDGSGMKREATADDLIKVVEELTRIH
smiles,measurement,setting,value
"Cc1ccc(NC(=O)NCc2scc3c2CN(C2CCC(=O)NC2=O)C3=O)nc1Cl (stereo not drawn) [Compound 46, 1-(6-Chloro-5-methylpyridin-2-yl)-3-((5-(2,6-dioxopiperidin-3-yl)-4-oxo-5,6-dihydro-4H-thieno[3,4-c]pyrrol-1-yl)methyl)urea]",viability at 1 µM,MDA-MB-231 cells,29%
same,viability at 10 µM,MDA-MB-231 cells,24.1%
same,viability at 1 µM,H1048 cells,9.35%
same,viability at 10 µM,H1048 cells,11.5%
same,cytotoxicity at 0.1 µM,Molm-13 cells,100%
same,inhibition at 0.1 µM,IL-1β,54%
same,remaining activity at 0.1 µM,GSPT1,65.2%
same,remaining activity at 1 µM,GSPT1,4.73%
same,inhibition at 0.1 µM,TNF-α,58%
same,inhibition at 0.1 µM,IL-6,85%
"Cc1sc2c(c1C)C(c1ccc(Cl)cc1)=N[C@@H](CC(=O)NCCCCNCC(=O)NCc1scc3c1CN([C@H]1CCCC(=O)NC1=O)C3=O)c1nnc(C)n1-2 [Compound 63, 2-((S)-4-(4-Chlorophenyl)-2,3,9-trimethyl-6H-thieno[3,2-f][1,2,4]triazolo[4,3-a][1,4]diazepin-6-yl)-N-(4-((2-(((5-((S)-2,7-dioxoazepan-3-yl)-4-oxo-5,6-dihydro-4H-thieno[3,4-c]pyrrol-1-yl)methyl)amino)-2-oxoethyl)amino)butyl)acetamide]",inhibition at 10 µM,IL-1β,27%
same,inhibition at 10 µM,TNF-α,34%
same,inhibition at 10 µM,IL-6,1%
"O=C1CCC(N2Cc3c(C4CCCC4)csc3C2=O)C(=O)N1 (stereo not drawn) [Compound 64, 3-(3-Cyclopentyl-6-oxo-4H-thieno[2,3-c]pyrrol-5(6H)-yl)piperidine-2,6-dione]",cytotoxicity at 10 µM,Molm-13 cells,13%
same,inhibition at 10 µM,IL-1β,22%
same,inhibition at 10 µM,TNF-α,45%
same,inhibition at 10 µM,IL-6,8%
"Cc1ccc(CNC(=O)NCc2csc3c2CN([C@H]2CCCC(=O)NC2=O)C3=O)cc1Cl [Compound 51, (S)-1-(3-Chloro-4-methylbenzyl)-3-((5-(2,7-dioxoazepan-3-yl)-6-oxo-5,6-dihydro-4H-thieno[2,3-c]pyrrol-3-yl)methyl)urea]",viability at 1 µM,MDA-MB-231 cells,108%
same,viability at 10 µM,MDA-MB-231 cells,103%
same,viability at 1 µM,H1048 cells,94.9%
same,viability at 10 µM,H1048 cells,24.1%
same,cytotoxicity at 1 µM,Molm-13 cells,0%
same,inhibition at 1 µM,IL-1β,38%
same,inhibition at 1 µM,TNF-α,49%
same,inhibition at 1 µM,IL-6,5%
"Cc1ccc(NC(=O)NCc2scc3c2CN(C2CCC(=O)NC2=O)C3=O)cc1C(F)(F)F (stereo not drawn) [Compound 54, 1-((5-(2,6-Dioxopiperidin-3-yl)-4-oxo-5,6-dihydro-4H-thieno[3,4-c]pyrrol-1-yl)methyl)-3-(4-methyl-3-(trifluoromethyl)phenyl)urea]",viability at 1 µM,MDA-MB-231 cells,22.6%
same,viability at 10 µM,MDA-MB-231 cells,22.4%
same,viability at 1 µM,H1048 cells,8.11%
same,viability at 10 µM,H1048 cells,6.12%
same,cytotoxicity at 0.1 µM,Molm-13 cells,100%
same,inhibition at 0.1 µM,IL-1β,96%
same,remaining activity at 0.1 µM,GSPT1,2.25%
same,remaining activity at 1 µM,GSPT1,2.72%
same,inhibition at 0.1 µM,TNF-α,93%
same,inhibition at 0.1 µM,IL-6,100%
"Cc1c(Cl)cc(NC(=O)NCc2scc3c2CN(C2CCC(=O)NC2=O)C3=O)cc1C(C)C (stereo not drawn) [Compound 48, 1-(3-Chloro-5-isopropyl-4-methylphenyl)-3-((5-(2,6-dioxopiperidin-3-yl)-4-oxo-5,6-dihydro-4H-thieno[3,4-c]pyrrol-1-yl)methyl)urea]",viability at 1 µM,MDA-MB-231 cells,22.2%
same,viability at 10 µM,MDA-MB-231 cells,21.7%
same,viability at 1 µM,H1048 cells,9.03%
same,viability at 10 µM,H1048 cells,6.89%
same,cytotoxicity at 0.1 µM,Molm-13 cells,100%
same,inhibition at 0.1 µM,IL-1β,96%
same,remaining activity at 0.1 µM,GSPT1,1.46%
same,remaining activity at 1 µM,GSPT1,3.85%
same,inhibition at 0.1 µM,TNF-α,92%
same,inhibition at 0.1 µM,IL-6,100%
"Cc1ccc(CC(=O)Nc2scc3c2CN(C2CCC(=O)NC2=O)C3=O)cc1Cl (stereo not drawn) [Compound 56, 2-(3-Chloro-4-methylphenyl)-N-(5-(2,6-dioxopiperidin-3-yl)-4-oxo-5,6-dihydro-4H-thieno[3,4-c]pyrrol-1-yl)acetamide]",viability at 1 µM,MDA-MB-231 cells,108%
same,viability at 10 µM,MDA-MB-231 cells,101%
same,viability at 1 µM,H1048 cells,29.1%
same,viability at 10 µM,H1048 cells,26.3%
same,cytotoxicity at 0.1 µM,Molm-13 cells,10%
same,inhibition at 1 µM,IL-1β,55%
same,inhibition at 1 µM,TNF-α,59%
same,inhibition at 1 µM,IL-6,12%
"Cc1cnc(Nc2ccc(OCCCNC(=O)NCc3scc4c3CN(C3CCC(=O)NC3=O)C4=O)cc2)nc1Nc1cccc(S(=O)(=O)NC(C)(C)C)c1 (stereo not drawn) [Compound 62, N-(tert-Butyl)-3-((2-((4-(3-(3-((5-(2,6-dioxopiperidin-3-yl)-4-oxo-5,6-dihydro-4H-thieno[3,4-c]pyrrol-1-yl)methyl)ureido)propoxy)phenyl)amino)-5-methylpyrimidin-4-yl)amino)benzenesulfonamide]",cytotoxicity at 1 µM,Molm-13 cells,71%
same,inhibition at 10 µM,IL-1β,51%
same,inhibition at 10 µM,TNF-α,63%
same,inhibition at 10 µM,IL-6,15%
"O=C1CCC(N2Cc3c(csc3C(F)(F)F)C2=O)C(=O)N1 (stereo not drawn) [Compound 29, 3-(4-Oxo-1-(trifluoromethyl)-4H-thieno[3,4-c]pyrrol-5(6H)-yl)piperidine-2,6-dione]",cytotoxicity at 10 µM,Molm-13 cells,10%
same,inhibition at 10 µM,IL-1β,57%
same,inhibition at 10 µM,TNF-α,60%
same,inhibition at 10 µM,IL-6,19%
"Nc1cccc2c1CN(C1CCC(=O)NC1=O)C2=O (stereo not drawn) [lenalidomide, reference compound]",reduction of expression of IL-1-b,IL-1β; equimolar concentration (FIG. 5),over 60%
same,reduction of expression of TNF-α,TNF-α; equimolar concentration (FIG. 7),below 60%
same,reduction of IL-6 levels,IL-6; LPS-stimulated PBMCs (FIG. 6),below 60%
"Cc1ccc(NC(=O)Nc2scc3c2CN(C2CCC(=O)NC2=O)C3=O)cc1Cl (stereo not drawn) [Compound 50, 1-(3-Chloro-4-methylphenyl)-3-(5-(2,6-dioxopiperidin-3-yl)-4-oxo-5,6-dihydro-4H-thieno[3,4-c]pyrrol-1-yl)urea]",viability at 1 µM,MDA-MB-231 cells,108%
same,viability at 10 µM,MDA-MB-231 cells,95.7%
same,viability at 1 µM,H1048 cells,15.8%
same,viability at 10 µM,H1048 cells,13.4%
same,cytotoxicity at 1 µM,Molm-13 cells,41%
same,inhibition at 1 µM,IL-1β,14%
same,inhibition at 1 µM,TNF-α,1%
same,inhibition at 1 µM,IL-6,0%

# Source: patent publication US10040804B2, “Compounds targeting proteins, compositions, methods, and uses thereof” (BioTheryX, Inc., priority 2016, dated 2018)
